Reference: article PMC7470982 (2020)

Columns and labels:
[1] = test system: C-KIT (DNA, i motif) CCCTCCTCCCAGCGCCCTCCCT; experiment: CD melting; settings: 100 mM KCl, potassium phosphate 60 mM; 1× BPES, pH 5.5; 1 μM DNA, 20 μM compound
[2] = test system: Fpy27 (DNA, i motif) CCTTCCCCACCCTCCCCACCCTCCCCA; experiment: MST; settings: 100 mM KCl, potassium phosphate 60 mM; 1× BPES (1 mM EDTA), pH 5.5, 25 °C
[3] = test system: FC-KITT (DNA, i motif) CCCTCCTCCCAGCGCCCTCCCT; experiment: FRET melting; settings: 100 mM KCl, potassium phosphate 60 mM; 1× BPES, pH 5.5; 0.2 μM DNA, 4 μM compound
[4] = test system: FKRAST (DNA, i motif) GCCCGGCCCCCGCTCCTCCCCCGCCGGCCCGGCCCGGCCCCCTCCTTCTCCCCG; experiment: FRET melting; settings: 100 mM KCl, potassium phosphate 60 mM; 1× BPES, pH 5.5; 0.2 μM DNA, 4 μM compound
[5] = test system: bio-hairpin (DNA, hairpin, HEG (non-nucleotide) linker between nucleotides 10 and 11) TATAGCTATATATAGCTATA; experiment: SPR; settings: 100 mM KCl; 20 mM Tris-HCl, pH 7.4, 25 °C; immobilised DNA
[6] = test system: pu39 (DNA, G4) AGGGGCGGGCGCGGGAGGAAGGGGGCGGGAGCGGGGCTG; experiment: TO fluorescent intercalator displacement; settings: K+ (100 mM KCl); 20 mM Tris-HCl pH 7.4; 1 μM DNA, 1 μM thiazole orange displaced
[7] = test system: py39 (DNA, i motif) CAGCCCCGCTCCCGCCCCCTTCCTCCCGCGCCCGCCCCT; experiment: CD melting; settings: 100 mM KCl, potassium phosphate 60 mM; 1× BPES, pH 5.5; 1 μM DNA, 20 μM compound
[8] = test system: bio-py27 (bio-C-MYC) (DNA, i motif) CCTTCCCCACCCTCCCCACCCTCCCCA; experiment: SPR; settings: 100 mM KCl; 20 mM MES, pH 5.5, 25 °C; immobilised DNA
[9] = test system: Fpy39 (DNA, i motif) CAGCCCCGCTCCCGCCCCCTTCCTCCCGCGCCCGCCCCT; experiment: MST; settings: 100 mM KCl, potassium phosphate 60 mM; 1× BPES (1 mM EDTA), pH 5.5, 25 °C
[10] = test system: bio-C-KIT (DNA, i motif) CCCTCCTCCCAGCGCCCTCCCT; experiment: SPR; settings: 100 mM KCl; 20 mM MES, pH 5.5, 25 °C; immobilised DNA
[11] = test system: bio-VEGF (DNA, i motif) GACCCCGCCCCCGGCCCGCCCCGG; experiment: SPR; settings: 100 mM KCl; 20 mM MES, pH 5.5, 25 °C; immobilised DNA
[12] = test system: py27 (C-MYC) (DNA, i motif) CCTTCCCCACCCTCCCCACCCTCCCCA; experiment: CD melting; settings: 100 mM KCl, potassium phosphate 60 mM; 1× BPES, pH 5.5; 1 μM DNA, 20 μM compound
[13] = test system: VEGF (DNA, i motif) GACCCCGCCCCCGGCCCGCCCCGG; experiment: CD melting; settings: 100 mM KCl, potassium phosphate 60 mM; 1× BPES, pH 5.5; 1 μM DNA, 20 μM compound
[14] = test system: hairpin (DNA, hairpin) CGCGCGCGTTTTCGCGCGCG; experiment: TO fluorescent intercalator displacement; settings: 1 μM DNA, 1 μM thiazole orange displaced
[15] = test system: KRAS (DNA, i motif) GCCCGGCCCCCGCTCCTCCCCCGCCGGCCCGGCCCGGCCCCCTCCTTCTCCCCG; experiment: CD melting; settings: 100 mM KCl, potassium phosphate 60 mM; 1× BPES, pH 5.5; 1 μM DNA, 20 μM compound
[16] = test system: Fpy39T (DNA, i motif) CAGCCCCGCTCCCGCCCCCTTCCTCCCGCGCCCGCCCCT; experiment: FRET melting; settings: 100 mM KCl, potassium phosphate 60 mM; 1× BPES, pH 5.5; 0.2 μM DNA, 4 μM compound
[17] = test system: py39 (DNA, i motif) CAGCCCCGCTCCCGCCCCCTTCCTCCCGCGCCCGCCCCT; experiment: ITC; settings: 100 mM KCl, potassium phosphate 60 mM; 1× BPES (1 mM EDTA), pH 5.5, 25 °C; fitted to 1:1 model
[18] = test system: Fpy27T (F-C-MYC-T) (DNA, i motif) CCTTCCCCACCCTCCCCACCCTCCCCA; experiment: FRET melting; settings: 100 mM KCl, potassium phosphate 60 mM; 1× BPES, pH 5.5; 0.2 μM DNA, 4 μM compound
[19] = test system: GC duplex (py39+pu39) (DNA, duplex) CAGCCCCGCTCCCGCCCCCTTCCTCCCGCGCCCGCCCCT/AGGGGCGGGCGCGGGAGGAAGGGGGCGGGAGCGGGGCTG; experiment: TO fluorescent intercalator displacement; settings: 20 mM NaCl; 20 mM Tris-HCl, pH 7.4; 1 μM DNA, 1 μM thiazole orange displaced
[20] = test system: FVEGFT (DNA, i motif) GACCCCGCCCCCGGCCCGCCCCGG; experiment: FRET melting; settings: 100 mM KCl, potassium phosphate 60 mM; 1× BPES, pH 5.5; 0.2 μM DNA, 4 μM compound
[21] = test system: py27 (C-MYC) (DNA, i motif) CCTTCCCCACCCTCCCCACCCTCCCCA; experiment: ITC; settings: 100 mM KCl, potassium phosphate 60 mM; 1× BPES (1 mM EDTA), pH 5.5, 25 °C; fitted to 1:1 model
[22] = test system: py39 (DNA, i motif) CAGCCCCGCTCCCGCCCCCTTCCTCCCGCGCCCGCCCCT; experiment: TO fluorescent intercalator displacement; settings: K+ (1x BPES: 100 mM KCl, potassium phosphate); 1x BPES pH 5.5; 1 μM DNA, 1 μM thiazole orange displaced
[23] = test system: bio-py39 (DNA, i motif) CAGCCCCGCTCCCGCCCCCTTCCTCCCGCGCCCGCCCCT; experiment: SPR; settings: 100 mM KCl; 20 mM MES, pH 5.5, 25 °C; immobilised DNA

Cc1ccc2c(c1)c(=O)c1cc(C(=O)NCCCN3CCOCC3)ccc1n2-c1ccc(C(=O)NCCCN2CCOCC2)cc1
ΔTm [1]: 0.20 °C
KD [2]: 10.95 µM
ΔTm [3]: -0.52 °C
ΔTm [4]: 1.17 °C
KD [5]: > 50 µM
relative replacement ratio [6]: 10%
ΔTm [7]: 9.63 °C
KD [8]: 11.95 µM
KD [9]: 4.69 µM
KD [10]: 34.5 µM
KD [11]: 36.4 µM
ΔTm [12]: 4.26 °C
ΔTm [13]: 1.34 °C
relative TO displacement ratio [14]: 12%
ΔTm [15]: 1.03 °C
ΔTm [16]: 9.15 °C
KD [17]: 5.52 µM
ΔTm [18]: 3.50 °C
relative TO displacement ratio [19]: 6%
ΔTm [20]: -0.64 °C
KD [21]: 11.1 µM
relative TO displacement ratio [22]: 52%
KD [23]: 3.56 µM
